From BindingDB's records for patent US20230357253 (The Scripps Research Institute, 2023) come the findings set out here.

The target of the experiment is Stimulator of interferon genes protein (Homo sapiens, UniProt Q86WV6). The experiment in a line: WT STING Binding Assay. As for the experimental part: Upon proximity of the two dyes, the excitation of the donor by the flash lamp on the PHERAstar FSX plate reader triggers a Fluorescence Resonance Energy Transfer (FRET) towards the acceptor, which in turn fluoresces at 665 nm. To assess the ability of the synthetic small molecule STING ligands to bind to human STING, a competitive assay format was applied. A 10-point titration of each of the synthetic ligands in 5 uL were transferred into a 384 well plate, followed by 20 uL of assay buffer containing the 6×His-tagged human STING protein and labeled 2′3′cGAMP ligand and incubated for three hours at room temperature. The raw values obtained from the PHERAstar were used to calculate the reported IC50 values (the signal is inversely proportional to the binding of the synthetic ligand) through curve fitting in Genedata. The percent inhibition was calculated based upon the maximal amount of binding by synthetic compound versus the maximum binding of unlabeled 2′3′ cGAMP which was used as a control in each assay.
Sequence of Stimulator of interferon genes protein (Q86WV6 whole entry): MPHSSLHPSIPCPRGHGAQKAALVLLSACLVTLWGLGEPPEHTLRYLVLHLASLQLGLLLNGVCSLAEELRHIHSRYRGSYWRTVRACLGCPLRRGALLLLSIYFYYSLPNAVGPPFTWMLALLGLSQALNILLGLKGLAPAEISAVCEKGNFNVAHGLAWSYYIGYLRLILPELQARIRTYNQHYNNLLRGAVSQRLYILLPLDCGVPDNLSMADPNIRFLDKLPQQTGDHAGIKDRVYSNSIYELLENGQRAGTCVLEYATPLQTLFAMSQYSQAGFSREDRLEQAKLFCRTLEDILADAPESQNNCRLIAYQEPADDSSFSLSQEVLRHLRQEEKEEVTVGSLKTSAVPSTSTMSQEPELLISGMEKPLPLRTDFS

As for `O=C(Nc1cc(CCCc2cc(NC(=O)c3ccc(-n4ccnc4)nn3)c(C(=O)O)cc2F)c(F)cc1C(=O)O)c1ccc(-n2ccnc2)nn1` [US20230357253, Compound 3], the IC50 (in general, the point on the concentration scale where inhibition reaches its midpoint) was less than 10 nM.

In turn, `O=C(Nc1cc(CCOc2cc(NC(=O)c3ccc(-c4cn[nH]c4)nn3)c(C(=O)O)cc2F)c(F)cc1C(=O)O)c1ccc(-c2cn[nH]c2)nn1` [US20230357253, Compound 4] showed an IC50 of less than 10 nM.

For `CC(CCOc1cc(NC(=O)c2ccc(-n3ccnc3)nn2)c(C(=O)O)cc1F)Oc1cc(NC(=O)c2ccc(-n3ccnc3)nn2)c(C(=O)O)cc1F` (stereo unspecified) [US20230357253, Compound 5], the IC50 was less than 10 nM.

On to `COc1cc(C(=O)O)c(NC(=O)c2ccc(-n3ccnc3)nn2)cc1OCCc1cc(C(=O)O)c(NC(=O)c2ccc3nnnn3n2)cc1Cl` [US20230357253, Compound 6], for which the half-inhibitory concentration (IC50) was less than 10 nM.

Regarding `O=C(Nc1cc(OCCCOc2cc(C(=O)O)c(NC(=O)c3ccc(-n4ccnc4)nn3)cc2F)c(F)cc1C(=O)O)c1ccc(-n2ccnc2)nn1` [US20230357253, Compound 10], the half-maximal inhibitory concentration (IC50) was less than 10 nM.

On to `O=C(Nc1cc(CCCc2ccc(NC(=O)c3ccc4nnnn4n3)c(C(=O)O)c2)ccc1C(=O)O)c1ccc2nnnn2n1` [US20230357253, Compound 13], for which the half-inhibitory concentration (IC50) was more than 1000 nM.

`O=C(Nc1cc(CCCc2ccc(C(=O)O)c(NC(=O)c3ccc4nnnn4n3)c2)ccc1C(=O)O)c1ccc2nnnn2n1` [US20230357253, Compound 14] registered an IC50 of more than 1000 nM.

Regarding `O=C(Nc1cc(OCCCCOc2cc(NC(=O)c3ccc(-n4ccnc4)nn3)c(C(=O)O)cc2F)ccc1C(=O)O)c1ccc(-n2ccnc2)nn1` [US20230357253, Compound 19], the concentration for half-maximal inhibition (IC50) is less than 10 nM.

Consider `COc1cc(C(=O)O)c(NC(=O)c2ccc(-n3ccnc3)nn2)cc1OCCCCOc1cc(NC(=O)c2ccc(-n3ccnc3)nn2)c(C(=O)O)cc1OC` [US20230357253, Compound 21], for which the 50% inhibitory concentration (IC50) was more than 1000 nM.

Take `O=C(Nc1cc(OCCCOc2ccc(NC(=O)c3ccc4nnnn4n3)c(C(=O)O)c2)ccc1C(=O)O)c1ccc2nnnn2n1` [US20230357253, Compound 25]: the IC50 was more than 1000 nM.

Consider `O=C(Nc1cc(OCCOc2cc(C(=O)O)c(NC(=O)c3ccc4nnnn4n3)cc2F)ccc1C(=O)O)c1ccc2nnnn2n1` [US20230357253, Compound 26], for which the IC50 was more than 1000 nM.

For `O=C(Nc1cc(OCCCCOc2ccc(NC(=O)c3ccc4nnnn4n3)c(C(=O)O)c2)ccc1C(=O)O)c1ccc2nnnn2n1` [US20230357253, Compound 27], the half-inhibitory concentration (IC50) was more than 1000 nM.

The compound `O=C(Nc1cc(OCCCOc2ccc(C(=O)O)c(NC(=O)c3ccc4nnnn4n3)c2)ccc1C(=O)O)c1ccc2nnnn2n1` [US20230357253, Compound 28] showed a half-maximal inhibitory concentration (IC50) of more than 1000 nM.

The compound `O=C(Nc1cc(CCc2ccc(C(=O)O)c(NC(=O)c3ccc4nnnn4n3)c2)ccc1C(=O)O)c1ccc2nnnn2n1` [US20230357253, Compound 29] returned a 50% inhibitory concentration (IC50) of more than 1000 nM.

On to `O=C(Nc1cc(OCCCCCOc2ccc(C(=O)O)c(NC(=O)c3ccc4nnnn4n3)c2)ccc1C(=O)O)c1ccc2nnnn2n1` [US20230357253, Compound 30], for which the IC50 is more than 1000 nM.

Regarding `O=C(Nc1cc(OCCOc2ccc(NC(=O)c3ccc4nnnn4n3)c(C(=O)O)c2)ccc1C(=O)O)c1ccc2nnnn2n1` [US20230357253, Compound 31], the IC50 is more than 1000 nM.

Consider `O=C(Nc1cc(OCCCCOc2ccc(C(=O)O)c(NC(=O)c3ccc4nnnn4n3)c2)ccc1C(=O)O)c1ccc2nnnn2n1` [US20230357253, Compound 32], for which the IC50 is more than 1000 nM.

In turn, `O=C(Nc1cc(OCCCOc2cc(C(=O)O)c(NC(=O)c3ccc4nnnn4n3)cc2F)c(F)cc1C(=O)O)c1ccc2nnnn2n1` [US20230357253, Compound 33] showed an IC50 of more than 1000 nM.

`O=C(Nc1cc(OCCCCOc2ccc(C(=O)O)c(NC(=O)c3ccc(-n4ccnc4)nn3)c2)ccc1C(=O)O)c1ccc(O)nn1` [US20230357253, Compound 35] showed a 50% inhibitory concentration (IC50) of more than 1000 nM.

Turning to `COC(=O)c1ccc(OCCCCOc2ccc(C(=O)O)c(NC(=O)c3ccc(-n4ccnc4)nn3)c2)cc1NC(=O)c1ccc2nnnn2n1` [US20230357253, Compound 37], the IC50 is more than 1000 nM.

`O=C(Nc1c(C(=O)O)cc(F)c(OCCCCOc2c(F)cc(C(=O)O)c(NC(=O)c3ccc(-n4ccnc4)nn3)c2F)c1F)c1ccc(-n2ccnc2)nn1` [US20230357253, Compound 38]: the IC50 is more than 1000 nM.

In turn, `O=C(Nc1c(C(=O)O)cc(F)c(OCCCCOc2c(F)cc(C(=O)O)c(NC(=O)c3ccc(-n4ccnc4)nn3)c2F)c1F)c1ccc(O)nn1` [US20230357253, Compound 39] had an IC50 of more than 1000 nM.

`O=C(Nc1cc(OCCCCOc2cnc(C(=O)O)c(NC(=O)c3ccc(-n4ccnc4)nn3)c2)cnc1C(=O)O)c1ccc(-n2ccnc2)nn1` [US20230357253, Compound 45] came in with an IC50 of more than 1000 nM.

As for `COc1cc(C(=O)O)c(NC(=O)c2ccc(-n3ccnc3)nn2)cc1CCCc1ccc(C(=O)O)c(NC(=O)c2ccc(-n3ccnc3)nn2)c1` [US20230357253, Compound 56], the IC50 is less than 10 nM.

As for `COc1cc(C(=O)O)c(NC(=O)c2ccc(-n3ccnc3)nn2)cc1CCCc1cc(NC(=O)c2ccc(-n3ccnc3)nn2)c(C(=O)O)cc1F` [US20230357253, Compound 59], the IC50 is less than 10 nM.

Compound `O=C(Nc1cc(CCCc2ccc(C(=O)O)c(NC(=O)c3ccc4nnnn4n3)c2)ccc1C(=O)O)c1ccc(-n2ccnc2)nn1` [US20230357253, Compound 63] displayed a 50% inhibitory concentration (IC50) of more than 1000 nM.

In turn, `O=C(Nc1cc(CCCc2cc(NC(=O)c3ccc(-n4ccnc4)nn3)c(C(=O)O)cc2Cl)ccc1C(=O)O)c1ccc(-n2ccnc2)nn1` [US20230357253, Compound 66] returned an IC50 of less than 10 nM.

In the case of `O=C(Nc1cc(CCCc2cc(NC(=O)c3ccc4nnnn4n3)c(C(=O)O)cc2F)c(F)cc1C(=O)O)c1ccc(-n2ccnc2)nn1` [US20230357253, Compound 67], the IC50 was less than 10 nM.

Compound `O=C(Nc1cc(CCCc2cc(NC(=O)c3ccc(-n4ccnc4)nn3)c(C(=O)O)cc2F)ccc1C(=O)O)c1ccc(-n2ccnc2)nn1` [US20230357253, Compound 68] showed a half-maximal inhibitory concentration (IC50) of less than 10 nM.

In turn, `O=C(Nc1cc(CCCc2cc(C(=O)O)c(NC(=O)c3ccc(-n4ccnc4)nn3)cc2F)c(F)cc1C(=O)O)c1ccc(-n2ccnc2)nn1` [US20230357253, Compound 70] had a 50% inhibitory concentration (IC50) of less than 10 nM.

On to `O=C(Nc1cc(CCCc2cc(C(=O)O)c(NC(=O)c3ccc(-n4ccnc4)nn3)cc2F)ccc1C(=O)O)c1ccc(-n2ccnc2)nn1` [US20230357253, Compound 78], for which the 50% inhibitory concentration (IC50) was less than 10 nM.

Take `O=C(Nc1cc(CCCc2cc(C(=O)O)c(NC(=O)c3ccc4nnnn4n3)cc2F)c(F)cc1C(=O)O)c1ccc(-n2ccnc2)nn1` [US20230357253, Compound 90]: the IC50 was less than 10 nM.

Consider `O=C(Nc1cc(F)c(CCCc2cc(NC(=O)c3ccc4nnnn4n3)c(C(=O)O)cc2F)cc1C(=O)O)c1ccc(-n2ccnc2)nn1` [US20230357253, Compound 94], for which the IC50 is less than 10 nM.

The compound `O=C(Nc1cc(CCCc2cc(C(=O)O)c(NC(=O)c3ccc4nnnn4n3)cc2F)c(N2CCOCC2)cc1C(=O)O)c1ccc(-n2ccnc2)nn1` [US20230357253, Compound 108] came in with a concentration for half-maximal inhibition (IC50) of more than 1000 nM.

`O=C(Nc1cc(CCCOc2cc(NC(=O)c3ccc(-n4ccnc4)nn3)c(C(=O)O)cc2F)c(F)cc1C(=O)O)c1ccc(-n2ccnc2)nn1` [US20230357253, Compound 125] had an IC50 of less than 10 nM.

`O=C(Nc1cc(CCCOc2cc(NC(=O)c3ccc4nnnn4n3)c(C(=O)O)cc2F)c(F)cc1C(=O)O)c1ccc(-n2ccnc2)nn1` [US20230357253, Compound 126] had an IC50 of less than 10 nM.

`O=C(Nc1cc(CCCCc2cc(C(=O)O)c(NC(=O)c3ccc(-n4ccnc4)nn3)cc2F)c(F)cc1C(=O)O)c1ccc(-n2ccnc2)nn1` [US20230357253, Compound 127] registered a half-inhibitory concentration (IC50) of less than 10 nM.

`COc1cc(C(=O)O)c(NC(=O)c2ccc(-n3ccnc3)nn2)cc1OCCc1cc(C(=O)O)c(NC(=O)c2ccc(-n3ccnc3)nn2)cc1C#N` [US20230357253, Compound 130] yielded an IC50 of less than 10 nM.

`O=C(Nc1cc(CSCc2cc(NC(=O)c3ccc(-n4ccnc4)nn3)c(C(=O)O)cc2F)c(F)cc1C(=O)O)c1ccc(-n2ccnc2)nn1` [US20230357253, Compound 132] came in with a half-inhibitory concentration (IC50) of less than 10 nM.

In turn, `O=C(O)Cc1cc(F)c(CCOc2cc(NC(=O)c3ccc(-n4ccnc4)nn3)c(C(=O)O)cc2F)cc1NC(=O)c1ccc(-n2ccnc2)nn1` [US20230357253, Compound 133] yielded a half-inhibitory concentration (IC50) of more than 1000 nM.

`COc1nc(C(=O)O)c(NC(=O)c2ccc(-n3ccnc3)nn2)cc1CCCc1cc(NC(=O)c2ccc(-n3ccnc3)nn2)c(C(=O)O)cc1F` [US20230357253, Compound 134] showed a concentration for half-maximal inhibition (IC50) of less than 10 nM.

In the case of `O=C(Nc1ccc(OCOc2ccc(NC(=O)c3ccc(-n4ccnc4)nn3)c(C(=O)O)c2)cc1C(=O)O)c1ccc(-n2ccnc2)nn1` [US20230357253, Compound 138], the IC50 is more than 1000 nM.

The compound `O=C(Nc1cc(CCOc2cc(C(=O)O)c(NC(=O)c3ccc(-n4ccnc4)nn3)cc2F)c(F)cc1C(=O)O)c1ccc(-n2ccnc2)nn1` [US20230357253, Compound 141] registered an IC50 of less than 10 nM.

Regarding `O=C(Nc1cc(OCCc2cc(C(=O)O)c(NC(=O)c3ccc(-n4ccnc4)nn3)cc2F)c(F)cc1C(=O)O)c1ccc(-n2ccnc2)nn1` [US20230357253, Compound 144], the IC50 is less than 10 nM.

On to `O=C(Nc1cc(CCOc2cc(C(=O)O)c(NC(=O)c3ccc4nnnn4n3)cc2F)c(F)cc1C(=O)O)c1ccc(-n2ccnc2)nn1` [US20230357253, Compound 145], for which the IC50 lay within 10 to 100 nM.

`O=C(Nc1cc(CCCc2ccc(-c3nn[nH]n3)c(NC(=O)c3ccc(-n4ccnc4)nn3)c2)c(F)cc1C(=O)O)c1ccc(-n2ccnc2)nn1` [US20230357253, Compound 148] gave an IC50 of more than 1000 nM.
